{"source": "patent US10512635B2", "about": "“Uses of benzimidazole derivative for nocturnal acid breakthrough” (CJ HEALTHCARE CORPORATION, priority 2015, dated 2019)", "tested_on": "gastric pH", "assay": "Clinical trial: 24 h gastric pH monitoring after single night-time oral dose", "assay_type": "in vivo, human (healthy male volunteers)", "conditions": "for % inhibition of IA / % inhibition of Time pH < 4: post-dose vs baseline; for % inhibition of IA / % inhibition of Time pH < 4 / IA (integrated acidity) / Median pH / Time pH > 4 (%) / Time pH > 6 (%): mean N=12; for IA (integrated acidity) / Median pH / Time pH > 4 (%) / Time pH > 6 (%): post-dose", "experimental": "In order to evaluate the nocturnal acid breakthrough inhibiting effect of the compound of Chemical Formula 1 according to the present disclosure, clinical trials were designed by Randomized, Open-label, Single-dose, Balanced incomplete block crossover. A total of 24 trial subjects were enrolled for 12 sequences, with two trial subjects assigned per a sequence. All the trial subjects have completed the planned clinical trial schedule (FIG. 1 and Table 1).\nTrial drugs were administered between P.M. 08:30 and P.M 10:30 together with 200 mL of water in a state where water intake was restricted 1 hour before the administration of the trial drugs. Investigator has instructed the trial subjects to take the trial drugs, and has observed the oral cavities of the trial subjects whether all the trial drugs were well taken. The trial subjects were restricted not to lie down for 3 hours after the administration of the trial drugs, but were not restricted when they must lie down or be semi-reclined during a clinical test procedure (for example, electrocardiogram examination). The trial subjects were to take a proper posture if any abnormal reaction occurs at any point.\nThe trial subjects were allowed to take a small amount of water (150 mL or less) in order to insert a pH sensor easily. The intake of drinking water and food was prohibited for 4 hours after the insertion of a pH sensor, and, particularly, the intake of water was restricted for 4 hours after the administration of the trial drugs (On the day before the administration (−1 D), for 4 hours after estimated drug administration time). After the trial subjects woke up next day, a small amount of water (about 50 mL) was provided to the trial subjects at 2 hour intervals during 12 to 24 hours after the administration of the trial drugs (On the day before the administration (−1 D), during 12 to 24 hours after estimated drug administration time), and the intake of water was not restricted during meal time. Meanwhile, standard meal was provided in the form of liquid meal or semi-liquid, and dinner was finished at least 3 hours before drug administration time (On the day before the administration (−1 D), estimated drug administration time). After dinner, an empty stomach state was maintained until breakfast next morning.\nSpecifically, for the analysis of […] parameters, the changes of average 15-min median gastric pH over time were monitored. The main […] parameters set forth above were calculated using the data of total 24 persons obtained by the monitoring of gastric pH. The time function of […] parameters was schematically was illustrated to calculate the […] parameters, and these […] parameters were summarized using descriptive statistics (arithmetic mean (mean), standard deviation (SD), coefficient of variation (CV (%)), sample size (N), minimum value (min), maximum value (max), and median value (median)).\nMeanwhile, the monitoring of gastric pH was carried out as fellows. • Period 1: for each examination period, 24 h for −1 D (before administration), 24 h for each of 1 D and 7 D (after administration) • Period 2: 24 h for 1 D (after administration)", "key": {"[1]": {"conditions": "Compound I 50 mg (Example 1), 24 hours"}, "[2]": {"conditions": "Compound I 50 mg (Example 1), day-time (12-24 hours)"}, "[3]": {"conditions": "Compound I 50 mg (Example 1), night-time (0-12 hours)"}, "[4]": {"conditions": "Compound I 100 mg (Example 2), 24 hours"}, "[5]": {"conditions": "Compound I 100 mg (Example 2), day-time (12-24 hours)"}, "[6]": {"conditions": "Compound I 100 mg (Example 2), night-time (0-12 hours)"}, "[7]": {"conditions": "Compound I 200 mg (two formulations of Example 2), 24 hours"}, "[8]": {"conditions": "Compound I 200 mg (two formulations of Example 2), day-time (12-24 hours)"}, "[9]": {"conditions": "Compound I 200 mg (two formulations of Example 2), night-time (0-12 hours)"}, "[10]": {"conditions": "dexlansoprazole 60 mg (Comparative Example), 24 hours"}, "[11]": {"conditions": "dexlansoprazole 60 mg (Comparative Example), day-time (12-24 hours)"}, "[12]": {"conditions": "dexlansoprazole 60 mg (Comparative Example), night-time (0-12 hours)"}}, "note": "Several values for one entry are separate records, joined by “and”; a condition that tells them apart may be missing. Identical values can stand only once."}
{"smiles": "Cc1nc2c(OC3CCOc4cc(F)cc(F)c43)cc(C(=O)N(C)C)cc2[nH]1", "note": "(centres unmarked) [Compound I, 4-(5,7-difluorochroman-4-yloxy)-N,N,2-trimethyl-1H-benzo[d]imidazole-6-carboxamide]", "values": [{"measurement": "% inhibition of IA", "setting": "[1]", "result": 78.18, "unit": "%"}, {"measurement": "% inhibition of Time pH < 4", "setting": "[1]", "result": 51.35, "unit": "%"}, {"measurement": "% inhibition of IA", "setting": "[2]", "result": 62.64, "unit": "%"}, {"measurement": "% inhibition of Time pH < 4", "setting": "[2]", "result": 39.65, "unit": "%"}, {"measurement": "% inhibition of IA", "setting": "[3]", "result": 83.98, "unit": "%"}, {"measurement": "% inhibition of Time pH < 4", "setting": "[3]", "result": 61.41, "unit": "%"}, {"measurement": "IA (integrated acidity)", "setting": "[1]", "result": 355.02, "unit": "mmol·h/L"}, {"measurement": "Median pH", "setting": "[1]", "result": 4.57}, {"measurement": "Time pH > 4 (%)", "setting": "[1]", "result": 58.55, "unit": "%"}, {"measurement": "Time pH > 6 (%)", "setting": "[1]", "result": 25.97, "unit": "%"}, {"measurement": "IA (integrated acidity)", "setting": "[2]", "result": 184.29, "unit": "mmol·h/L"}, {"measurement": "Median pH", "setting": "[2]", "result": 4.08}, {"measurement": "Time pH > 4 (%)", "setting": "[2]", "result": 52.06, "unit": "%"}, {"measurement": "Time pH > 6 (%)", "setting": "[2]", "result": 21.56, "unit": "%"}, {"measurement": "IA (integrated acidity)", "setting": "[3]", "result": 170.73, "unit": "mmol·h/L"}, {"measurement": "Median pH", "setting": "[3]", "result": 4.98}, {"measurement": "Time pH > 4 (%)", "setting": "[3]", "result": 65.11, "unit": "%"}, {"measurement": "Time pH > 6 (%)", "setting": "[3]", "result": 30.41, "unit": "%"}, {"measurement": "% inhibition of IA", "setting": "[4]", "result": 88.78, "unit": "%"}, {"measurement": "% inhibition of Time pH < 4", "setting": "[4]", "result": 66.22, "unit": "%"}, {"measurement": "% inhibition of IA", "setting": "[5]", "result": 90.74, "unit": "%"}, {"measurement": "% inhibition of Time pH < 4", "setting": "[5]", "result": 71.47, "unit": "%"}, {"measurement": "% inhibition of IA", "setting": "[6]", "result": 88.68, "unit": "%"}, {"measurement": "% inhibition of Time pH < 4", "setting": "[6]", "result": 62.53, "unit": "%"}, {"measurement": "IA (integrated acidity)", "setting": "[4]", "result": 229.60, "unit": "mmol·h/L"}, {"measurement": "Median pH", "setting": "[4]", "result": 5.10}, {"measurement": "Time pH > 4 (%)", "setting": "[4]", "result": 70.07, "unit": "%"}, {"measurement": "Time pH > 6 (%)", "setting": "[4]", "result": 31.91, "unit": "%"}, {"measurement": "IA (integrated acidity)", "setting": "[5]", "result": 67.72, "unit": "mmol·h/L"}, {"measurement": "Median pH", "setting": "[5]", "result": 5.10}, {"measurement": "Time pH > 4 (%)", "setting": "[5]", "result": 74.57, "unit": "%"}, {"measurement": "Time pH > 6 (%)", "setting": "[5]", "result": 30.10, "unit": "%"}, {"measurement": "IA (integrated acidity)", "setting": "[6]", "result": 161.88, "unit": "mmol·h/L"}, {"measurement": "Median pH", "setting": "[6]", "result": 5.01}, {"measurement": "Time pH > 4 (%)", "setting": "[6]", "result": 65.61, "unit": "%"}, {"measurement": "Time pH > 6 (%)", "setting": "[6]", "result": 33.85, "unit": "%"}, {"measurement": "% inhibition of IA", "setting": "[7]", "result": 93.45, "unit": "%"}, {"measurement": "% inhibition of Time pH < 4", "setting": "[7]", "result": 78.87, "unit": "%"}, {"measurement": "% inhibition of IA", "setting": "[8]", "result": 97.41, "unit": "%"}, {"measurement": "% inhibition of Time pH < 4", "setting": "[8]", "result": 82.48, "unit": "%"}, {"measurement": "% inhibition of IA", "setting": "[9]", "result": 91.17, "unit": "%"}, {"measurement": "% inhibition of Time pH < 4", "setting": "[9]", "result": 76.00, "unit": "%"}, {"measurement": "IA (integrated acidity)", "setting": "[7]", "result": 141.62, "unit": "mmol·h/L"}, {"measurement": "Median pH", "setting": "[7]", "result": 5.90}, {"measurement": "Time pH > 4 (%)", "setting": "[7]", "result": 81.73, "unit": "%"}, {"measurement": "Time pH > 6 (%)", "setting": "[7]", "result": 48.44, "unit": "%"}, {"measurement": "IA (integrated acidity)", "setting": "[8]", "result": 25.51, "unit": "mmol·h/L"}, {"measurement": "Median pH", "setting": "[8]", "result": 5.62}, {"measurement": "Time pH > 4 (%)", "setting": "[8]", "result": 85.34, "unit": "%"}, {"measurement": "Time pH > 6 (%)", "setting": "[8]", "result": 43.29, "unit": "%"}, {"measurement": "IA (integrated acidity)", "setting": "[9]", "result": 116.11, "unit": "mmol·h/L"}, {"measurement": "Median pH", "setting": "[9]", "result": 6.00}, {"measurement": "Time pH > 4 (%)", "setting": "[9]", "result": 78.15, "unit": "%"}, {"measurement": "Time pH > 6 (%)", "setting": "[9]", "result": 53.63, "unit": "%"}, {"measurement": "Time pH > 4 (%)", "setting": "Compound I 200 mg (two formulations of Example 2), night-time (0-12 hours), listed as compound of Chemical Formula 1", "result": 73.15, "unit": "%"}, {"measurement": "time after administration until average gastric pH reached 4 or higher", "setting": "all dose groups (50 mg, 100 mg, and 200 mg), administered at night-time", "result": "≤ 2", "unit": "hours"}]}
{"smiles": "Cc1c(OCC(F)(F)F)ccnc1C[S@@+]([O-])c1nc2ccccc2[nH]1", "note": "[dexlansoprazole, reference compound]", "values": [{"measurement": "% inhibition of IA", "setting": "[10]", "result": 64.66, "unit": "%"}, {"measurement": "% inhibition of Time pH < 4", "setting": "[10]", "result": 53.96, "unit": "%"}, {"measurement": "% inhibition of IA", "setting": "[11]", "result": 97.01, "unit": "%"}, {"measurement": "% inhibition of Time pH < 4", "setting": "[11]", "result": 79.80, "unit": "%"}, {"measurement": "% inhibition of IA", "setting": "[12]", "result": 44.06, "unit": "%"}, {"measurement": "% inhibition of Time pH < 4", "setting": "[12]", "result": 29.98, "unit": "%"}, {"measurement": "IA (integrated acidity)", "setting": "[10]", "result": 719.54, "unit": "mmol·h/L"}, {"measurement": "Median pH", "setting": "[10]", "result": 4.98}, {"measurement": "Time pH > 4 (%)", "setting": "[10]", "result": 60.55, "unit": "%"}, {"measurement": "Time pH > 6 (%)", "setting": "[10]", "result": 25.85, "unit": "%"}, {"measurement": "IA (integrated acidity)", "setting": "[11]", "result": 22.89, "unit": "mmol·h/L"}, {"measurement": "Median pH", "setting": "[11]", "result": 5.56}, {"measurement": "Time pH > 4 (%)", "setting": "[11]", "result": "83.05% and 83.06%"}, {"measurement": "Time pH > 6 (%)", "setting": "[11]", "result": 33.71, "unit": "%"}, {"measurement": "IA (integrated acidity)", "setting": "[12]", "result": 696.55, "unit": "mmol·h/L"}, {"measurement": "Median pH", "setting": "[12]", "result": 2.55}, {"measurement": "Time pH > 4 (%)", "setting": "[12]", "result": 37.78, "unit": "%"}, {"measurement": "Time pH > 6 (%)", "setting": "[12]", "result": 17.76, "unit": "%"}]}
